Results taken from patent US5698669A, “Tri-arginine insulins” (Eli Lilly and Company, priority 1995, dated 1997).
Each block holds one substance with its values, some of them ahead of it.

Tests used:
[1] = test system: New Zealand White rabbits; assay: Blood glucose in fasted rabbits after subcutaneous injection of 40 U/ml insulin solutions; type: in vivo, rabbit; conditions: for Percent of Original Blood Glucose: added zinc 0 mg/ml, 0.2 U/kg s.c., rabbits, n = 10; for hypoglycemic activity: statement in words, animal model
Procedure: Solutions were prepared containing various amounts of zinc (0-2.4 mg/ml) in the form of zinc chloride. Glacial acetic acid was used to solublize each of the solutions at a final pH range of pH 4-6.
New Zealand White rabbits, mostly female, all weighing 2.7-4 kg, 0.5-4 years of age and fasted 16 hours prior to administration of sample were used for testing.
At various times, 100 μl volumes of blood were obtained from the marginal ear veins, mixed with 900 μl volumes of anticoagulant (EDTA-sodium fluoride) and analyzed for glucose content. The glucose values were standardized to reflect percent of original blood glucose measured prior to sample injection.

[2] = target: human proinsulin (human) (UniProt P01308)
[3] = standardized value used for formulating 40 U/ml solutions; cited from earlier work
[4] = target: des(64) human proinsulin (human) (UniProt P01308)

Substance: Des(64) HPI: split(64) proinsulin wherein Lys-64 is removed
Percent of Original Blood Glucose ([1]; 4 hours after injection): 99.6%
Percent of Original Blood Glucose ([1]; 6 hours after injection): 90.0%
hypoglycemic activity [1]: hypoglycemic activity of its own

Substance: Pseudomonas aeruginosa Endopeptidase-Lys-C (Promega) (enzyme)
conversion of human proinsulin to split(64) proinsulin (preparative HPLC, yield of product) [2]: 237 mg

Substance: Split(64) HPI: human proinsulin wherein the peptide bond between Lys-64 and Arg-65 is broken
hypoglycemic activity [1]: hypoglycemic activity of its own

Substance: human insulin: natural human insulin, reference for biopotency
standardized value (potency per mass) [3]: 28.85 U/mg

conversion of des(64) human proinsulin to tri-arg insulin (preparative HPLC, yield of product) [4]: 0.94 g
Substance: pork trypsin (Sigma) (from UniProt P00761) (enzyme)
